{
  "source": "paper PMC11239005",
  "about": "“Preclinical studies of RA475, a guanidine-substituted spirocyclic candidate RPN13/ADRM1 inhibitor for treatment of ovarian cancer” (PLOS ONE, 2024)",
  "key": {"[1]": {"test": "Stability in murine plasma", "type": "in vitro ADME, mouse", "conditions": "10 μM, 1 h at 37°C", "method": "(§1) Human and mouse liver microsomes and NADPH regenerating system solutions were purchased from Corning Life Sciences (Tewsbury, MA). Human and mouse K2EDTA-treated plasma was purchased from BioIVT (Westbury, NY). Metabolic studies in liver microsomes (0.125 mg/mL) were conducted in 1x PBS (pH 7.4), NADPH-generating system, and 10 μM RA475 in a final volume of 250 μL. An incubation mixture with or without NADPH-generating system, as well as a neat solution prepared without microsomes and NADPH-generating system was used. RA475 was added at the same concentration level into human and mouse EDTA plasma. All reactions were initiated with the addition of RA475. Incubations were performed in glass tubes maintained at 37°C in a shaker bath. At 0, 30, and 60 min, 10 μL samples were withdrawn from the reaction mixture, and 0.5 mL of acetonitrile containing internal standard was added to each. Samples were vortex-mixed and subjected to centrifugation for 5 min at 1430 x g. A 10 μL aliquot of the supernatant was injected onto the LC-MS/MS instrument for qualitative analysis using a temperature-controlled autosampling device operating at 5°C (See Pharmacokinetic section)."}, "[2]": {"system": "4UbFL in 4T1 cells", "test": "4UbFL reporter assay, 4T1", "type": "cell-based", "conditions": "4T1 stably expressing 4UbFL, 4 h", "method": "Sub-confluent cultures of cells were transfected with 4UbFL plasmid using TransIT 2020 reagent (Mirus Bio). Cells were seeded at 10,000 cells/well in 96-well plates 48 h post transfection, and incubated with compounds or vehicle (DMSO) at the doses and for the times indicated. Luciferase activity in cell lysate was determined with a luciferase assay kit (Promega) according to the manufacturer’s instructions. Bioluminescence was measured using a Glomax Multidetection system (Promega).\nFig 3 Impact of RA475 on proteasome function. […] Actin was used as loading control. […] After a 4 h incubation, the cells were lysed and the luciferase activity in each cell lysate was determined with a luciferase assay kit (Promega) according to the manufacturer’s instructions. Bioluminescence was measured by using a luminometer (Glomax Multidetection system, Promega) E) A patch was shaved of hair on one leg of CD-1 mice, and 10 μg 4UbFL plasmid in 20 μL of PBS was injected into the quadriceps femoralis muscle followed immediately by injection of the 2 Needle Array to 5 mm depth encompassing the injection site and square wave electroporation (ElectroSquarePorator 833, BTX-2 Needle array 5mm gap, Harvard apparatus) delivered as eight pulses at 106V for 20 ms with 200 ms intervals. […] Equally sized areas were analyzed using Living Image 2.20 software. […]"}, "[3]": {"system": "ID8-Vegf Defb29 cells stably expressing firefly luciferase", "test": "Syngeneic ID8-luc ovarian tumor model, IP", "type": "in vivo", "conditions": "C57BL6 mice, 40 mg/Kg every 3 days IP", "method": "Female C57BL6 mice were inoculated IP with 3x10^5 ID8-Defb29/VegfA-luc cells in 100 μL PBS. At day 3, mice were imaged for basal level luminescence activity with a Xenogen IVIS 200 after IP injection with luciferin (0.3 mg in 100 μL water). Mice were randomized into groups and treated IP with compounds or vehicle (25% (w/v) β-Hydroxypropylcyclodextrin in water), and imaged again on days indicated.\nIn addition to direct tumor cell killing, it is possible that RA475 may trigger an immunogenic cell death and thus anti-tumor immunity that could contribute to tumor control. Therefore, we elected to first test the treatment potential of RA475 in an ovarian tumor in a syngeneic mouse model. Since ovarian cancer is shed into, and spread within the peritoneal cavity, female C57BL6 mice were injected IP with ID8-Vegf Defb29 cells stably expressing firefly luciferase (0.5 x 10^6 cells ID8-luc) in PBS (100 μL). After 72 h, mice were imaged for their basal luminescence levels using an IVIS200 imager to confirm the presence of viable tumor cells. Mice with visible luminescence were randomized into two groups and treated with Vehicle (25% β-hydroxy propylcyclodextrin in water, 200 μL, every 3 days, IP) and RA475 (40 mg/Kg, every 3 days, IP). Mice were weighed and, after administration of luciferin (100 μL, 7.8 mg/mL), imaged every week to assess bioluminescence associated with tumor burden. […]\nFig 6 Treatment with RA475 of mice bearing an orthotopic syngeneic ovarian cancer model tumor. Female C57BL6 mice bearing ID8-Luc tumor were monitored for tumor burden by IVIS imaging (A), survival (B) and animal weight (C) after treatment with IP treatment every three days with RA475 (40mg/Kg, n = 8) or vehicle alone (n = 7). […] After 72 h, mice were imaged after administration of luciferin (100 μL, 7.8 mg/mL) for their basal luminescence levels using an IVIS200 imager. Mice with visible luminescence were randomized into two groups and treated with Vehicle alone (25% β-hydroxy propylcyclodextrin in water, 200 μL, every 3 days, IP) or RA475 (40 mg/Kg, every 3 days, IP). […]"}, "[4]": {"test": "Stability in mouse liver microsomes", "type": "in vitro ADME", "conditions": "with or without NADPH, over 1 h", "method": "as §1"}},
  "data": [
    {"smiles": "Cl.Cl.N#Cc1ccc(/C=C2/C(=O)/C(=C/c3ccc(C#N)cc3)C23CCN(C(=N)N)CC3)cc1", "note": "[RA475, 1,3-bis((E)-4-cyanobenzylidene)-2-oxo-7-azaspiro[3.5]nonane-7-carboximidamide dihydrochloride]", "values": [
      {"measurement": "stability in plasma", "setting": "[1]", "value": "did not degrade"},
      {"measurement": "4UbFL bioluminescence signal", "setting": "[2]", "value": "dose dependent increases in bioluminescence signal"},
      {"measurement": "survival", "setting": "[3]", "value": "prolonged survival"},
      {"measurement": "tumor burden by bioluminescence", "setting": "[3]", "value": "tumor control"},
      {"measurement": "animal weight", "setting": "[3]; while on treatment", "value": "continue to gain weight"},
      {"measurement": "degradation in liver microsomes", "setting": "[4]", "value": "< 10", "unit": "%"}
    ]}
  ]
}
